{"source": "paper PMC5218480", "about": "(PLoS ONE, 2017)", "system": "MV-4-11 cells", "assay": "Gene expression microarray analysis (Affymetrix PrimeView) and GSEA", "assay_type": "cell-based, human", "design": "RFU PODN (11730768_x_at) / Fold change /veh PODN (11730768_x_at) / RFU LINC00158 (11744669_a_at) / Fold change /veh LINC00158 (11744669_a_at) / RFU DUSP10 (11751237_a_at) / Fold change /veh DUSP10 (11751237_a_at) / RFU ID3 (11757404_x_at) / Fold change /veh ID3 (11757404_x_at) / RFU PLEKHG5 (11737974_s_at) / Fold change /veh PLEKHG5 (11737974_s_at) / RFU LRRC4B (11730491_at) / Fold change /veh LRRC4B (11730491_at) / RFU GIMAP4 (11747438_a_at) / Fold change /veh GIMAP4 (11747438_a_at) / RFU KRT8 (11758183_x_at) / Fold change /veh KRT8 (11758183_x_at) / RFU CNN1 (11734310_a_at) / Fold change /veh CNN1 (11734310_a_at) / RFU VPS37D (11726825_at) / Fold change /veh VPS37D (11726825_at) / RFU C10orf10 (11716522_x_at) / Fold change /veh C10orf10 (11716522_x_at) / RFU KIR2DL2 /// KIR2DL4 /// KIR2DL5A /// KIR2DL5B /// KIR2DS1 /// KIR2DS2 /// KIR2DS3 /// KIR2DS4 /// KIR3DL3 /// KIR3DL3 /// KIR3DS1 (11738374_at) / Fold change /veh KIR2DL2 /// KIR2DL4 /// KIR2DL5A /// KIR2DL5B /// KIR2DS1 /// KIR2DS2 /// KIR2DS3 /// KIR2DS4 /// KIR3DL3 /// KIR3DL3 /// KIR3DS1 (11738374_at) / RFU C1QL1 (11718748_at) / Fold change /veh C1QL1 (11718748_at) / RFU TMPRSS4 (11747572_a_at) / Fold change /veh TMPRSS4 (11747572_a_at) / RFU HAMP (11756126_x_at) / Fold change /veh HAMP (11756126_x_at) / RFU RNFT2 (11725882_a_at) / Fold change /veh RNFT2 (11725882_a_at) / RFU NR4A2 (11747474_a_at) / Fold change /veh NR4A2 (11747474_a_at) / RFU ABCC12 (11746883_a_at) / Fold change /veh ABCC12 (11746883_a_at) / RFU TMEM136 (11760407_x_at) / Fold change /veh TMEM136 (11760407_x_at) / RFU CLDN22 /// WWC2 (11732394_at) / Fold change /veh CLDN22 /// WWC2 (11732394_at) / RFU HLA-DPB1 (11760878_x_at) / Fold change /veh HLA-DPB1 (11760878_x_at) / RFU SPINT1 (11716480_a_at) / Fold change /veh SPINT1 (11716480_a_at) / RFU GAP43 (11754022_s_at) / Fold change /veh GAP43 (11754022_s_at) / RFU A4GNT (11735810_at) / Fold change /veh A4GNT (11735810_at) / RFU PRB3 (11715151_x_at) / Fold change /veh PRB3 (11715151_x_at) / RFU TUBB4B (11761932_at) / Fold change /veh TUBB4B (11761932_at) / RFU CAPN14 (11732068_a_at) / Fold change /veh CAPN14 (11732068_a_at) / RFU TMCC2 (11721928_a_at) / Fold change /veh TMCC2 (11721928_a_at) / RFU IRGQ (11745062_a_at) / Fold change /veh IRGQ (11745062_a_at) / RFU FAM174B (11720279_a_at) / Fold change /veh FAM174B (11720279_a_at) / RFU TMPRSS4 (11748680_a_at) / Fold change /veh TMPRSS4 (11748680_a_at) / RFU FAM212B (11763350_a_at) / Fold change /veh FAM212B (11763350_a_at) / RFU PLEKHG5 (11743358_a_at) / Fold change /veh PLEKHG5 (11743358_a_at) / RFU ZSCAN30 (11745921_a_at) / Fold change /veh ZSCAN30 (11745921_a_at) / RFU CMKLR1 (11741424_a_at) / Fold change /veh CMKLR1 (11741424_a_at) / RFU LOC101060620 /// MAPK8IP1 (11723275_at) / Fold change /veh LOC101060620 /// MAPK8IP1 (11723275_at) / RFU SPTSSB (11747773_x_at) / Fold change /veh SPTSSB (11747773_x_at) / RFU PRSS12 (11739890_at) / Fold change /veh PRSS12 (11739890_at) / RFU BIN1 (11741810_x_at) / Fold change /veh BIN1 (11741810_x_at) / RFU WNT11 (11732464_a_at) / Fold change /veh WNT11 (11732464_a_at) / RFU C10orf10 (11716521_a_at) / Fold change /veh C10orf10 (11716521_a_at) / RFU C5orf56 (11738089_at) / Fold change /veh C5orf56 (11738089_at) / RFU CYB561 (11721691_x_at) / Fold change /veh CYB561 (11721691_x_at) / RFU ANKRD19P (11752326_a_at) / Fold change /veh ANKRD19P (11752326_a_at) / RFU OR2T12 /// OR2T33 /// OR2T8 (11738714_s_at) / Fold change /veh OR2T12 /// OR2T33 /// OR2T8 (11738714_s_at) / RFU VCAN (11748164_a_at) / Fold change /veh VCAN (11748164_a_at) / RFU JSRP1 (11732532_at) / Fold change /veh JSRP1 (11732532_at) / RFU KRTAP10-11 (11738290_x_at) / Fold change /veh KRTAP10-11 (11738290_x_at) / RFU MYO3A (11730013_a_at) / Fold change /veh MYO3A (11730013_a_at) / RFU EBF3 (11725865_a_at) / Fold change /veh EBF3 (11725865_a_at) / RFU CAMK2N1 (11719241_x_at) / Fold change /veh CAMK2N1 (11719241_x_at) / RFU C5orf56 (11738088_a_at) / Fold change /veh C5orf56 (11738088_a_at) / RFU OLFML3 (11715873_a_at) / Fold change /veh OLFML3 (11715873_a_at) / RFU LOC100653217 /// NTM (11731650_a_at) / Fold change /veh LOC100653217 /// NTM (11731650_a_at) / RFU MAPK11 (11762145_a_at) / Fold change /veh MAPK11 (11762145_a_at) / RFU FIZ1 (11724087_x_at) / Fold change /veh FIZ1 (11724087_x_at) / RFU OASL (11726364_x_at) / Fold change /veh OASL (11726364_x_at) / RFU SOX15 (11748057_x_at) / Fold change /veh SOX15 (11748057_x_at) / RFU CD79A (11719716_a_at) / Fold change /veh CD79A (11719716_a_at) / RFU HIST1H1D (11736915_at) / Fold change /veh HIST1H1D (11736915_at) / RFU CASKIN2 (11723855_a_at) / Fold change /veh CASKIN2 (11723855_a_at) / RFU LOC730098 (11760151_x_at) / Fold change /veh LOC730098 (11760151_x_at) / RFU OR4N2 (11742367_at) / Fold change /veh OR4N2 (11742367_at) / RFU PRRT2 (11749266_a_at) / Fold change /veh PRRT2 (11749266_a_at) / RFU SNX32 (11753110_a_at) / Fold change /veh SNX32 (11753110_a_at) / RFU CDHR5 (11726645_a_at) / Fold change /veh CDHR5 (11726645_a_at) / RFU RCAN1 (11760418_a_at) / Fold change /veh RCAN1 (11760418_a_at) / RFU FAM167A (11723789_a_at) / Fold change /veh FAM167A (11723789_a_at) / RFU FAM26E (11764081_at) / Fold change /veh FAM26E (11764081_at) / RFU ISYNA1 (11749810_s_at) / Fold change /veh ISYNA1 (11749810_s_at) / RFU ACY1 (11761880_at) / Fold change /veh ACY1 (11761880_at) / RFU 11764098_at / Fold change /veh 11764098_at / RFU SAMD14 (11745864_x_at) / Fold change /veh SAMD14 (11745864_x_at) / RFU NPB (11741838_a_at) / Fold change /veh NPB (11741838_a_at) / RFU TMPRSS6 (11731388_a_at) / Fold change /veh TMPRSS6 (11731388_a_at) / RFU KRTAP10-2 (11738614_at) / Fold change /veh KRTAP10-2 (11738614_at) / RFU ARHGAP8 /// PRR5-ARHGAP8 (11727945_x_at) / Fold change /veh ARHGAP8 /// PRR5-ARHGAP8 (11727945_x_at) / RFU KRTAP5-7 /// NADSYN1 (11734609_at) / Fold change /veh KRTAP5-7 /// NADSYN1 (11734609_at) / RFU RASL12 (11751679_a_at) / Fold change /veh RASL12 (11751679_a_at) / RFU CDKN2B (11736163_a_at) / Fold change /veh CDKN2B (11736163_a_at) / RFU PRF1 (11729649_at) / Fold change /veh PRF1 (11729649_at) / RFU, ZNF638 /// ZNF638-IT1 / Fold change vs veh, ZNF638 /// ZNF638-IT1 / RFU, PANK3 / Fold change vs veh, PANK3 / RFU, SH3YL1 / Fold change vs veh, SH3YL1 / RFU, ZEB2 / Fold change vs veh, ZEB2 / RFU, NRIP1 / Fold change vs veh, NRIP1 / RFU, PTTG1IP / Fold change vs veh, PTTG1IP / RFU, CAPN2 / Fold change vs veh, CAPN2 / RFU, MED14 / Fold change vs veh, MED14 / RFU, SNORA58 / Fold change vs veh, SNORA58 / RFU, C1orf63 / Fold change vs veh, C1orf63 / RFU, LRRFIP1 / Fold change vs veh, LRRFIP1 / RFU, NDUFAF7 / Fold change vs veh, NDUFAF7 / RFU, SLC12A2 / Fold change vs veh, SLC12A2 / RFU, IBTK / Fold change vs veh, IBTK / RFU, ESF1 / Fold change vs veh, ESF1 / Fold change vs veh, TMEM50B / RFU, TAOK1 / Fold change vs veh, TAOK1 / RFU, ACBD3 / Fold change vs veh, ACBD3 / RFU, TMA16 / Fold change vs veh, TMA16 / RFU, RWDD3 / Fold change vs veh, RWDD3 / RFU, BCAT1 / Fold change vs veh, BCAT1 / RFU, EDEM3 / Fold change vs veh, EDEM3 / RFU, TMEM33 / Fold change vs veh, TMEM33 / RFU, WDR75 / Fold change vs veh, WDR75 / RFU, AHCTF1 / Fold change vs veh, AHCTF1 / RFU, TFRC / Fold change vs veh, TFRC / RFU, ZDHHC17 / Fold change vs veh, ZDHHC17 / RFU, NOM1 / Fold change vs veh, NOM1 / RFU, ARL8B / Fold change vs veh, ARL8B / RFU, ZBTB11 / Fold change vs veh, ZBTB11 / RFU, TAMM41 / Fold change vs veh, TAMM41 / RFU, KIAA1704 /// LOC100996395 / Fold change vs veh, KIAA1704 /// LOC100996395 / RFU, ING1 / Fold change vs veh, ING1 / RFU, TRMT61B / Fold change vs veh, TRMT61B / RFU, FUBP3 / Fold change vs veh, FUBP3 / RFU, TP53 / Fold change vs veh, TP53 / RFU, TNKS2 / Fold change vs veh, TNKS2 / RFU, ZFP14 / Fold change vs veh, ZFP14 / RFU, ACTR2 / Fold change vs veh, ACTR2 / RFU, PPP3R1 / Fold change vs veh, PPP3R1 / RFU, PIK3R1 / Fold change vs veh, PIK3R1 / RFU, HNRNPA1 / Fold change vs veh, HNRNPA1 / RFU, RNF170 / Fold change vs veh, RNF170 / RFU, ZNF28 / Fold change vs veh, ZNF28 / RFU, RNGTT / Fold change vs veh, RNGTT / RFU, OGT / Fold change vs veh, OGT / RFU, BRD1 / Fold change vs veh, BRD1 / RFU, MARS / Fold change vs veh, MARS / RFU, ZNF655 / Fold change vs veh, ZNF655 / RFU, FAHD1 / Fold change vs veh, FAHD1 / RFU, BDP1 / Fold change vs veh, BDP1 / RFU, LRRCC1 / Fold change vs veh, LRRCC1 / RFU, ARID1A / Fold change vs veh, ARID1A / RFU, ZNF146 / Fold change vs veh, ZNF146 / RFU, ZNF330 / Fold change vs veh, ZNF330 / RFU, GPN3 / Fold change vs veh, GPN3 / RFU, C9orf123 / Fold change vs veh, C9orf123 / RFU, N4BP2L2 / Fold change vs veh, N4BP2L2 / RFU, ARFIP1 / Fold change vs veh, ARFIP1 / RFU, FAM179B / Fold change vs veh, FAM179B / RFU, BCL10 / Fold change vs veh, BCL10 / RFU, UHRF1BP1L / Fold change vs veh, UHRF1BP1L / RFU, BET1 / Fold change vs veh, BET1 / RFU, CNOT2 / Fold change vs veh, CNOT2 / RFU, ZNF268 / Fold change vs veh, ZNF268 / Fold change vs veh, ZNF507 / RFU, DGCR2 / Fold change vs veh, DGCR2 / RFU, WDSUB1 / Fold change vs veh, WDSUB1 / Fold change vs veh, HSP90B1 /// MIR3652 / RFU, ADSS / Fold change vs veh, ADSS / RFU, GK / Fold change vs veh, GK / RFU, ZNF148 / Fold change vs veh, ZNF148 / RFU, TAF9 / Fold change vs veh, TAF9 / RFU, SLC1A5 / Fold change vs veh, SLC1A5 / RFU, SLMO2 / Fold change vs veh, SLMO2 / RFU, ABCC4 / Fold change vs veh, ABCC4 / RFU, LOC101060439 /// RAP1B / Fold change vs veh, LOC101060439 /// RAP1B / RFU, RFX7 / Fold change vs veh, RFX7 / RFU, GTPBP10 / Fold change vs veh, GTPBP10 / RFU, CNEP1R1 / Fold change vs veh, CNEP1R1 / RFU, BIVM-ERCC5 /// ERCC5 / Fold change vs veh, BIVM-ERCC5 /// ERCC5 / RFU, ILF3 / Fold change vs veh, ILF3 / RFU 11762660_at / Fold change /veh 11762660_at / RFU VCAN (11757783_s_at) / Fold change /veh VCAN (11757783_s_at) / RFU DDX43 (11728927_at) / Fold change /veh DDX43 (11728927_at) / RFU KRT8 (11758188_x_at) / Fold change /veh KRT8 (11758188_x_at) / RFU NKD1 (11759106_at) / Fold change /veh NKD1 (11759106_at) / RFU SRD5A1 (11742802_a_at) / Fold change /veh SRD5A1 (11742802_a_at) / RFU TPSAB1 /// TPSB2 (11721975_s_at) / Fold change /veh TPSAB1 /// TPSB2 (11721975_s_at) / RFU GSTM3 (11746129_a_at) / Fold change /veh GSTM3 (11746129_a_at) / RFU IL23R (11737362_x_at) / Fold change /veh IL23R (11737362_x_at) / RFU TMEM51 (11727254_a_at) / Fold change /veh TMEM51 (11727254_a_at) / RFU PIWIL2 (11732686_x_at) / Fold change /veh PIWIL2 (11732686_x_at) / RFU ORM1 (11744905_x_at) / Fold change /veh ORM1 (11744905_x_at) / RFU CCDC152 (11743942_at) / Fold change /veh CCDC152 (11743942_at) / RFU ECM1 (11717891_a_at) / Fold change /veh ECM1 (11717891_a_at) / RFU IL23R (11748794_a_at) / Fold change /veh IL23R (11748794_a_at) / RFU TNFAIP8L3 (11732012_x_at) / Fold change /veh TNFAIP8L3 (11732012_x_at) / RFU MBOAT4 (11741988_at) / Fold change /veh MBOAT4 (11741988_at) / RFU 11764193_at / Fold change /veh 11764193_at / RFU TMEM53 (11763286_at) / Fold change /veh TMEM53 (11763286_at) / RFU MAGEB2 (11727129_at) / Fold change /veh MAGEB2 (11727129_at) / RFU TMEM200A (11744735_a_at) / Fold change /veh TMEM200A (11744735_a_at) / RFU CCDC152 (11751479_a_at) / Fold change /veh CCDC152 (11751479_a_at) / RFU FAM211A (11726209_a_at) / Fold change /veh FAM211A (11726209_a_at) / RFU RGS16 (11746705_a_at) / Fold change /veh RGS16 (11746705_a_at) / RFU VCAN (11755009_s_at) / Fold change /veh VCAN (11755009_s_at) / RFU RHOB (11743442_s_at) / Fold change /veh RHOB (11743442_s_at) / RFU RGS16 (11720943_a_at) / Fold change /veh RGS16 (11720943_a_at) / RFU RGS16 (11720944_at) / Fold change /veh RGS16 (11720944_at) / RFU, VPS4B / Fold change vs veh, VPS4B / RFU, CREB1 / Fold change vs veh, CREB1 / RFU, DNAJC13 / Fold change vs veh, DNAJC13 / RFU, GNAQ / Fold change vs veh, GNAQ / RFU, CDK5R1 / Fold change vs veh, CDK5R1 / RFU, ZRANB3 / Fold change vs veh, ZRANB3 / RFU, CUL4A / Fold change vs veh, CUL4A / RFU, CCNY / Fold change vs veh, CCNY / RFU, UFL1 / Fold change vs veh, UFL1 / RFU, COG3 / Fold change vs veh, COG3 / RFU, DIAPH2 / Fold change vs veh, DIAPH2 / RFU, SKA2 / Fold change vs veh, SKA2 / RFU, AFF3 / Fold change vs veh, AFF3 / RFU, LMF1 / Fold change vs veh, LMF1 / RFU, IPO11 / Fold change vs veh, IPO11 / RFU, DFFB / Fold change vs veh, DFFB / RFU, FOXP1 / Fold change vs veh, FOXP1 / RFU, CARD8 / Fold change vs veh, CARD8 / RFU, STRN3 / Fold change vs veh, STRN3 / RFU, ADK / Fold change vs veh, ADK / RFU, RASSF2 / Fold change vs veh, RASSF2 / RFU, WIPF1 / Fold change vs veh, WIPF1 / RFU, LARP1B / Fold change vs veh, LARP1B / RFU, RASA1 / Fold change vs veh, RASA1 / RFU, RB1 / Fold change vs veh, RB1 / RFU, PPFIA1 / Fold change vs veh, PPFIA1 / RFU, MAT2A / Fold change vs veh, MAT2A / RFU, CCT5 / Fold change vs veh, CCT5 / RFU, WDR92 / Fold change vs veh, WDR92 / RFU, CUX1 / Fold change vs veh, CUX1 / RFU, TTC7A / Fold change vs veh, TTC7A / RFU, TMEM135 / Fold change vs veh, TMEM135 / RFU, DEPTOR / Fold change vs veh, DEPTOR / RFU, CPM / Fold change vs veh, CPM / RFU, DNAJB6 / Fold change vs veh, DNAJB6 / RFU, CACNA2D3 / Fold change vs veh, CACNA2D3 / RFU, DTX4 / Fold change vs veh, DTX4 / RFU, TFCP2 / Fold change vs veh, TFCP2 / RFU, GMCL1 /// GMCL1P1 / Fold change vs veh, GMCL1 /// GMCL1P1 / RFU, AEBP2 / Fold change vs veh, AEBP2 / RFU, SNHG1 /// SNORD22 /// SNORD25 /// SNORD26 /// SNORD27 /// SNORD28 /// SNORD29 /// SNORD31 / Fold change vs veh, SNHG1 /// SNORD22 /// SNORD25 /// SNORD26 /// SNORD27 /// SNORD28 /// SNORD29 /// SNORD31 / Fold change (Aza/veh), C12orf56 (ProbeSet 11735607_a_at) / Fold change (ACY-1035/veh), C12orf56 (ProbeSet 11735607_a_at) / Fold change (Aza/veh), FGFR1OP (ProbeSet 11751329_s_at) / Fold change (ACY-1035/veh), FGFR1OP (ProbeSet 11751329_s_at) / Fold change (Aza/veh), VPS36 (ProbeSet 11739960_a_at) / Fold change (ACY-1035/veh), VPS36 (ProbeSet 11739960_a_at) / RFU SYPL1 (11715823_x_at) / Fold change /veh SYPL1 (11715823_x_at) / RFU IGFBP7 (11715501_s_at) / Fold change /veh IGFBP7 (11715501_s_at) / RFU REEP3 (11722064_at) / Fold change /veh REEP3 (11722064_at) / RFU IGLL1 (11728026_x_at) / Fold change /veh IGLL1 (11728026_x_at): dose or concentration left out as unconfirmed", "conditions": "ProbeSet 11731093_s_at; LIST B", "data": [{"molecule": "Nc1ccc(-c2cccs2)cc1NC(=O)c1ccc2c(c1)cc(C1CC1)n2CCN1CCOCC1", "note": "[ACY-1035]", "values": [{"measurement": "Fold change vs veh, BRD1", "result": 0.87}]}]}
